# Columns and labels:
# CthTpt1 [1] = biological target: T1, CthTpt1 (Acetivibrio thermocellus, UniProt A3DJX6, C46S); assay: X-ray crystal structure, […] Å; format: binding; conditions: NAD+ site; CoA absent from RNA lobe; acquired during production in E. coli; pH 8.5
# T1 construct: gene kptA; 182-aa polypeptide, His6-tagged, recombinant from E. coli; Leu3-Glu182 modelled; one protomer in the asymmetric unit
# CthTpt1 [2] = biological target: T2, CthTpt1 (Acetivibrio thermocellus, UniProt A3DJX6); assay: X-ray crystal structure, […] Å; format: binding; conditions: acquired during production in E. coli, pH 6.0
# T2 construct: gene kptA; 182-aa polypeptide, His6-tagged, recombinant from E. coli; Leu3-Glu182 modelled; one protomer in the asymmetric unit
# RslTpt1 = biological target: T3, RslTpt1 (Runella slithyformis, UniProt A0A7U3ZK32, H99A/T101A); assay: RNA […]'-phosphotransferase assay, […]-labelled 6-mer RNA, urea-PAGE; format: biochemical; conditions: 1 mM NAD+, 0.2 µM 2'-PO4 6-mer RNA, 0.01 µM enzyme, 30 min, pH 7.5, 37 °C
# T3 construct: gene kptA; His6-tagged, recombinant from E. coli, Ni-NTA and gel filtration
# T3 sequence (A0A7U3ZK32 entry or part of it H99A/T101A): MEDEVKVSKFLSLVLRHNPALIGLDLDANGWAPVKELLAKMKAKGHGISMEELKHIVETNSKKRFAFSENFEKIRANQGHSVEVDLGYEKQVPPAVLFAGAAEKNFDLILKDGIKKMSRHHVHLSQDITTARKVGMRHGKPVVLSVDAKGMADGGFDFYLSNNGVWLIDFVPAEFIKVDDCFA
# T2 sequence (A3DJX6 whole entry): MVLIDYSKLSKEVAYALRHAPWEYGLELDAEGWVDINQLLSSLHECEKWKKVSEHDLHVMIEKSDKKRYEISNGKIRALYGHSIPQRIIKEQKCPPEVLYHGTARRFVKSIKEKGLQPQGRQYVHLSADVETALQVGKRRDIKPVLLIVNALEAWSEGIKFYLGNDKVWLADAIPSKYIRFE
# T1 sequence (A3DJX6 whole entry C46S): as the sequence (A3DJX6 whole entry) above, with C46S counted along it
smiles,measurement,setting,value
Nc1ncnc2c1ncn2[C@@H]1O[C@H](COP(=O)(O)OP(=O)(O)OC[C@H]2O[C@H](OP(=O)(O)O)[C@H](O)[C@@H]2O)[C@@H](O)[C@H]1O [ADP-ribose-1″-phosphate],"X-ray crystal structure, 1.55 Å",CthTpt1 [1],ADP-ribose-1″-phosphate was bound to the NAD^+ lobe
same,"X-ray crystal structure, 1.4 Å","CthTpt1 [2]; NAD+ site (C-terminal lobe), CoA also bound",The molecule associated with the C-terminal lobe was unambiguously modeled as ADP-ribose-1″-phosphate
NC(=O)c1ccc[n+]([C@@H]2O[C@H](COP(=O)([O-])OP(=O)(O)OC[C@H]3O[C@@H](n4cnc5c(N)ncnc54)[C@H](O)[C@@H]3O)[C@@H](O)[C@H]2O)c1 [NAD^+],% of input RNA converted to 2′-OH product,RslTpt1,4%
CC(C)(COP(=O)(O)OP(=O)(O)OC[C@H]1O[C@@H](n2cnc3c(N)ncnc32)[C@H](O)[C@@H]1OP(=O)(O)O)[C@@H](O)C(=O)NCCC(=O)NCCS [coenzyme A],"X-ray crystal structure, 1.4 Å","CthTpt1 [2]; covalent (disulfide to Cys46), pAp moiety in RNA site (N-terminal lobe), ADP-ribose-1″-phosphate also bound",The molecule associated with the N-terminal lobe was convincingly modeled as coenzyme A (CoA)
